PubChem BioAssay AID2060882 (Molecular Pharmacology Branch, DTP, NCI, 2025)
pIC50: −log10 of the molar value.

Tested on: 898857-211-R-J1-PDC complex spheroids, growth % test/control
Assay: Anticancer human tumor 898857-211-R-J1-PDC patient-derived melanoma cell line growth inhibition [RAS]
Settings: for pIC50: curve of first compound; for viability, T/C: stronger effect = lower value; active means viability on the fitted dose curve at most 10% of control; inactive means the rest
Procedure, shortened: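 Tumour cells grown as complex spheroids with HUVEC endothelial cells and mesenchymal stem cells, treated with RAS pathway inhibitor combinations. Each agent spans half-log steps from near clinical Cmax, or 10 microM where Cmax is unknown.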
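Further: spheroids exposed to compound for seven days before readout.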
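Wherever viability, T/C is given: 100% = DMSO vehicle control wells.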

Cc1nc(N2CCC3(CC2)COC(C)C3N)c(CO)nc1Sc1ccnc(N)c1Cl (configuration not stated) + C#Cc1c(F)ccc2cc(O)cc(-c3ncc4c(N5CC6CCC(C5)N6)nc(OCC56CCCN5CC(F)C6)nc4c3F)c12
> 7.50: pIC50 (second compound 10 µM)
< 5.00: pIC50 (second compound 0.0316 µM) | pIC50 (second compound 0.1 µM) | pIC50 (second compound 0.316 µM) | pIC50 (second compound 1 µM) | pIC50 (second compound 3.16 µM)
inactive: viability, T/C (second compound 0.0316 µM, first compound 0.0316 µM) 117% | viability, T/C (second compound 0.0316 µM, first compound 0.1 µM) 91.8% | viability, T/C (second compound 0.0316 µM, first compound 0.316 µM) 100% | viability, T/C (second compound 0.0316 µM, first compound 1 µM) 97.3% | viability, T/C (second compound 0.0316 µM, first compound 3.16 µM) 89.8% | viability, T/C (second compound 0.0316 µM, first compound 10 µM) 88.3% | viability, T/C (second compound 0.1 µM, first compound 0.0316 µM) 103% | viability, T/C (second compound 0.1 µM, first compound 0.1 µM) 96.6% | viability, T/C (second compound 0.1 µM, first compound 0.316 µM) 96.2% | viability, T/C (second compound 0.1 µM, first compound 1 µM) 87.1% | viability, T/C (second compound 0.1 µM, first compound 3.16 µM) 97.2% | viability, T/C (second compound 0.1 µM, first compound 10 µM) 86.3% | viability, T/C (second compound 0.316 µM, first compound 0.0316 µM) 101% | viability, T/C (second compound 0.316 µM, first compound 0.1 µM) 102% | viability, T/C (second compound 0.316 µM, first compound 0.316 µM) 102% | viability, T/C (second compound 0.316 µM, first compound 1 µM) 98.2% | viability, T/C (second compound 0.316 µM, first compound 3.16 µM) 103% | viability, T/C (second compound 0.316 µM, first compound 10 µM) 99% | viability, T/C (second compound 1 µM, first compound 0.0316 µM) 104% | viability, T/C (second compound 1 µM, first compound 0.1 µM) 108% | viability, T/C (second compound 1 µM, first compound 0.316 µM) 107% | viability, T/C (second compound 1 µM, first compound 1 µM) 104% | viability, T/C (second compound 1 µM, first compound 3.16 µM) 96.6% | viability, T/C (second compound 1 µM, first compound 10 µM) 108% | viability, T/C (second compound 3.16 µM, first compound 0.0316 µM) 96.8% | viability, T/C (second compound 3.16 µM, first compound 0.1 µM) 108% | viability, T/C (second compound 3.16 µM, first compound 0.316 µM) 86.3% | viability, T/C (second compound 3.16 µM, first compound 1 µM) 106% | viability, T/C (second compound 3.16 µM, first compound 3.16 µM) 103% | viability, T/C (second compound 3.16 µM, first compound 10 µM) 90.8% | viability, T/C (second compound 10 µM, first compound 0.0316 µM) 37.6% | viability, T/C (second compound 10 µM, first compound 0.1 µM) 45.1% | viability, T/C (second compound 10 µM, first compound 0.316 µM) 49% | viability, T/C (second compound 10 µM, first compound 1 µM) 52.2% | viability, T/C (second compound 10 µM, first compound 3.16 µM) 38.2% | viability, T/C (second compound 10 µM, first compound 10 µM) 15.8%
